Experimental data reported in patent publication US10308628B2, “Heterocyclic compounds and methods for their use” (NOVARTIS AG, priority 2015, dated 2019).

Molecular target: human AT2 receptor (Homo sapiens (Human), UniProt P50052)
Assay: AT2 receptor binding assay ([125I]CGP 42112A displacement, CHO-K1 cell membranes)
Conditions: membranes of CHO-K1 cells stably expressing human AT2 receptor; 0.05 nM [125I]CGP 42112A; Ki derived from IC50 by Cheng-Prussoff equation
Description: Reagents were purchased from Sigma-Aldrich, unless otherwise specified. Dialyzed fetal bovine serum (FBS) was from Life Technologies (cat. no. 10073772). Valiscreen® human angiotensin AT2 receptor cell line (cat. no. ES-070-C), [^125I]CGP 42112A (cat. no. NEX324025UC) and MicroScint™ 40 (cat. no. 6013641) were purchased from PerkinElmer. CGP 42112A (cat. no. 2569) and PD 123,319 ditrifluoroacetate (cat. no. 1361) were from Tocris Biosciences.
6. […] Compound Preparation
Compounds were prepared from 10 mM stock solutions in 100% DMSO. Dilutions were made using electronic multichannel pipettes.
Controls • Total binding (high control) was determined in the absence of unlabelled ligand. A solution of 10% DMSO in assay buffer was prepared. • Non-specific binding (low control) was determined in the presence of a vast excess (10 μM) of PD 123,319. 1 mM stock solution of PD 123,319 in water was diluted […] with 10% DMSO in assay buffer.
15 μL compound solution was transferred to duplicate wells of assay plate. 5 compounds were tested per plate. 15 μL control solutions were transferred to columns 1 and 12 of assay plate.

Sequence of human AT2 receptor (P50052 whole entry): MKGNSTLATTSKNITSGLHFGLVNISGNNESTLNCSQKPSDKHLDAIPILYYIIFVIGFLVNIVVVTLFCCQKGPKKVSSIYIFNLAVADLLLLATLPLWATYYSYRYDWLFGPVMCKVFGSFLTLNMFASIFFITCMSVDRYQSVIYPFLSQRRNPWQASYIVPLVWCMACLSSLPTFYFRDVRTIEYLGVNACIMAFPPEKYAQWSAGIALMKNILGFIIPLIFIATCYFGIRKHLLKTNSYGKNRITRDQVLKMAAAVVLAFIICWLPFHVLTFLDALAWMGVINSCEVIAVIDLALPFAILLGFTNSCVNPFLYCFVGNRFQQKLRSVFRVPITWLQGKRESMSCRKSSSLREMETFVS

O=C(O)[C@@H]1C[C@H](N2CCCOc3cc(F)ccc32)CCN1C(=O)C(c1ccccc1)c1ccccc1 [Compound 2, (2S,4R)-1-(2,2-Diphenylacetyl)-4-(8-fluoro-3,4 dihydrobenzo[b][1,4]oxazepin-5(2H)-yl)piperidine-2-carboxylic acid]
Ki: 9 nM

O=C(O)[C@@H]1C[C@H](N2CCCOc3cc(F)c(F)cc32)CCN1C(=O)C(c1ccccc1)c1ccccc1 [Compound 1, (2S,4R)-4-(7,8-Difluoro-3,4-dihydrobenzo[b][1,4]oxazepin-5 (2H)-yl)-1-(2,2-diphenylacetyl)piperidine-2-carboxylic acid]
Ki: 7 nM

COc1ccc2c(c1)CCCCN2[C@@H]1CCN(C(=O)C(c2ccccc2)c2ccccc2)[C@H](C(=O)O)C1 [Compound 5, (2S,4R)-1-(2,2-Diphenylacetyl)-4-(7-methoxy-2,3,4,5-tetrahydro-1H-benzo[b]azepin-1-yl)piperidine-2-carboxylic acid]
Ki: 9 nM

O=C(O)[C@@H]1C[C@H](N2CCCOc3ccc(F)cc32)CCN1C(=O)C(c1ccccc1)c1ccccc1 [Compound 3, (2S,4R)-1-(2,2-Diphenylacetyl)-4-(7-fluoro-3,4dihydrobenzo[b][1,4]oxazepin-5(2H)-yl)piperidine-2-carboxylic acid]
Ki: 17 nM

O=C(O)[C@@H]1C[C@H](N2CCCOc3ccccc32)CCN1C(=O)C(c1ccccc1)c1ccccc1 [Compound 4, (2S,4R)-4-(3,4-Dihydrobenzo[b][1,4]oxazepin-5(2H)-yl)-1-(2,2-diphenylacetyl)piperidine-2-carboxylic acid]
Ki: 15 nM
